Assay results reported in patent publication US20240327339A1, “COMPOSITIONS AND METHODS FOR TREATING AND PREVENTING VIRAL INFECTIONS” (priority 2021, published 2024).
≈ marks a conversion by molar mass, not a printed value. Entries after “also recorded” stand apart in the source; their conditions may differ. Where two headings read alike, the source gives them in different places.

What was measured:
A/WSN/33 (H1N1) [1] = conditions: Perwitasari et al. 2013; cited from earlier work
SARS-CoV-2 [2] = conditions: 90% inhibition of COVID-19 viral replication; Investigator Brochure; read-out: IC90 level; cited from earlier work
Measles virus [3] = assay: Measles virus plaque assay; type: cell-based; conditions: HEp2 and Vero cells treated before infection; MOI=0.01; 72 hours
Method: (§1) Plate 4×10^4/well of Vero-E6 or Hep-2 cells to be 95-100% confluent the next day. The next day make fresh dilutions of Probenecid were made. From a stock concentration of 10 mM in 100% DMSO, dilutions were made with half DMSO and half DMEM with 4% BSA fraction. FBS inhibits some viruses. Media was decanted and dilutions of probenecid were added to cells. Controls: DMSO/Media mixture, Media with no Probenecid, Media with no virus. Probenecid dilutions were left on cells for 24 hrs. After 24 hrs, media was decanted and virus was added (MOI=0.01/well). Virus was diluted to MOI=0.01 per 100 uL with DMEM. Left virus inoculum on cells for 1 hr. After 1 hr, infection media was decanted and replaced with dilutions of Probenecid. For Immunostaining, plates were left for 24 hrs before fixing cells. For Plaque Assays, plates were left for 72 hrs before freezing at −80 C.
For plaque assays of probenecid treated cells, cells were treated with various concentrations of Probenecid before being infected with Measles virus (MOI=0.01). After 72 hours, cells were frozen until plaque assay. Plaque concentrations are recorded as log 10 PFU/mL.

Zika (MR766) virus = assay: Zika assay in Vero-P cells; type: cell-based; conditions: MOI=0.1, FIG. 11
Excerpt: (§2) Experiments Conducted in Vero-P Cells.

E. coli = assay: Killing of free bacteria
SARS-CoV-2 [4] = conditions: cited from earlier work
Mumps (Jones) virus = assay: Mumps assay in Vero-P cells; type: cell-based; conditions: MOI=0.1, FIG. 10
Excerpt: as §2

Burkholderia = assay: Bacterial replication in macrophage; conditions: macrophage-associated bacteria
Measles virus [5] = assay: Measles virus syncytia immunostaining; type: cell-based
Method: as §1
The immunostaining protocol generally included fixing cells with 4% formaldehyde in PBS (50 uL) for 15-20 min at room temp, rinsing cells 3× with PBS (100 uL), and optionally storing cells at 4° C. in PBS until ready to stain. Permeabilizing cells with 0.05% TritonX-100 in PBS (100 uL) for 10 min at room temp, rinsing cells 3× with PBS (100 uL), blocking with 3% BSA-PBS (100 uL) for 1 hr at 37° C. or overnight at 4° C. Blocking solution was removed and cells were incubated with primary antibody (mouse mAb uNP, Millipore MAB8906) at 1:10,000 dilution (100 uL) for 1 hour (antibody diluted in 3% BSA-PBS). Cells were washed 3× with KPL Buffer (100 uL), incubated for 45 min with secondary antibody (Goat uMouse conjugated with Alex flour 488) in the dark at 37° C. (antibody diluted in 3% BSA-PBS). Cells were washed 3× with KPL Buffer in the dark (100 uL), rapidly stained with DAPI (1 ug/mL) for 10 min in the dark, washed 3× with PBS in the dark and stored in 200 ul of PBS until visualization.
Experiments were designed to test the prophylactic effect of probenecid on measles virus infection. Cells were infected with measle virus with, or without, probenecid treatment and immunostained for syncytia. […]

RSV A2 [6] = assay: In vitro probenecid inhibition assay, RSV A2 (plaque assay); type: cell-based, respiratory syncytial virus (RSV); conditions: for IC50 / IC90: human respiratory syncytial virus; for virus replication compared to control (DMSO only): Vero E6, HEp-2 and NHBE cells
A/WSN/33 (H1N1) [7] = assay: A/WSN/33 (H1N1) IC50 (Perwitasari et al.); type: cell-based; conditions: Influenza A virus; converted from 0.5 nM
Dengue Type 1 virus = assay: Dengue assay in Vero-P cells; conditions: MOI=0.1, FIG. 12
SARS-CoV-2 [8] = conditions: ten non-hospitalized patients, mild to moderate infection; 28 day; cited from earlier work
[9] = system: adenovirus serotype 5 (Ad5); assay: Ad5 infection of A549 cells; type: cell-based; conditions: only limited conditions tested
[10] = system: SLC22A8 (OAT3) transcripts; assay: OAT3 expression in HEp-2 cells (qPCR); conditions: HEp-2 cells treated with IC90 of probenecid [7.2 uM] for 24 h
RSV A2 [11] = assay: In vivo inhibition study, BALB/c mouse model of RSV infection; design: species or system BALB/c mice; conditions: 2 or 200 mg/kg i.p., 24 h before or 24 h after infection, days 3, 5, 7 pi
[12] = Preliminary virology data used for pediatric simulations; conditions: virus not stated
Method: Simulations were also conducted in pediatric subjects. Allometric scaling based on body weights used as an empirical approach to predict concentrations in pediatric subjects. 10 mg/kg qd, 10 mg/kg bid, 20 mg/kg qd, 20 mg/kg bid dose was simulated. IC50 from preliminary virology data is 1 nM.

[13] = in vivo, cited from earlier work
Memphis-37 = assay: In vitro probenecid inhibition assay, Memphis-37 (plaque assay); type: cell-based, human RSV strain A; conditions: for IC50 / IC90: human respiratory syncytial virus; for virus replication compared to control (DMSO only): Vero E6, HEp-2 and NHBE cells
SARS-CoV-2 [14] = assay: SARS-CoV-2 IC90 (Investigator Brochure); conditions: Severe acute respiratory syndrome coronavirus 2, read-out: IC90 level corrected for 95% protein binding
influenza virus = assay: Influenza assays in A549 cells; type: cell-based
Method: Experiment Conducted in A549 Cells.
[…] with influenza virus (MOI=0.1) for 1 hour
The virus is plaqued in MDCK cells while studies are carried out in human respiratory epithelial cells.

hMPV CAN83 (A2 strain) = assay: hMPV challenge of BALB/c mice; type: in vivo; conditions: 24 h prior to or 24 h post infection; lungs 5 dpi; FIGS. 26A-26B
Method: BALB/c mice were prophylactically (24 h prior to) or post-infection (24 h post) (“treatment”) treated with probenecid at the indicated concentrations. Mice (n=5/sex/group) were challenged i.n. with 1e6 PFU hMPV CAN83 (A2 strain). Lungs were collected 5 dpi and a plaque assay performed. The results are illustrated in FIGS. 26A-26B.

RSV B1 = assay: In vitro probenecid inhibition assay, RSV B1 (plaque assay); type: cell-based, respiratory syncytial virus (RSV); conditions: for IC50 / IC90: human respiratory syncytial virus; for IC90: up to 100 μM; for virus replication compared to control (DMSO only): Vero E6, HEp-2 and NHBE cells
RSV = conditions: cited from earlier work
[15] = Vero C1008, Prophylaxis (24 h before infection), Vero E6 cells
[16] = Vero C1008, Treatment (24 h after infection), Vero E6 cells
[17] = Prophylaxis (24 h before infection), HEp-2 cells
[18] = Prophylaxis (24 h before infection), NHBE cells
[19] = Treatment (24 h after infection), HEp-2 cells
[20] = Treatment (24 h after infection), NHBE cells

For CCCN(CCC)S(=O)(=O)c1ccc(C(=O)O)cc1 [Probenecid, 4-[(dipropylamino)sulfonyl] benzoic acid], the IC50 (A/WSN/33 (H1N1) [1]) is listed as 0.5 nM, the IC90 (SARS-CoV-2 [2]) is listed as 364 nM and the plaque titers (Measles virus [3]) is listed as “below the limit of detection”. The “inhibition of virus replication” value (Zika (MR766) virus) was “picomolar levels of probenecid were effective at inhibiting virus replication”, the killing of bacteria (E. coli) was “did not kill bacteria” and the “efficacy at treating SARS-CoV-2” value (SARS-CoV-2 [4]; hamsters, 2 mg/kg and 200 mg/kg) was “both effective at treating SARS-CoV-2 in hamsters in vivo”. The “effect on virus replication and inflammatory response” value (SARS-CoV-2 [4]; in vitro and pre-clinical hamster studies (WO 2021/207606)) was “block replication of the SARS-CoV-2 virus and the associated acute inflammatory response to the infection”, the “inhibition of virus replication” value (Mumps (Jones) virus) was “picomolar levels of probenecid were effective at inhibiting virus replication” and the killing of bacteria (Burkholderia) was “did not kill bacteria”. The syncytia per well (Measles virus [5]; 1 uM Probenecid, 24 hrs, NP fluorescence stain) was “no syncytia were detected”, the “concentration also effective on MeV” value (Measles virus [5]; Hep-2 cells, other assays) was 0.03 UM and the IC50 (Measles virus [5]; Measles morbillivirus, probenecid dilution assay, FIG. 14A, read-out: IC50 (average syncytia per well)) was 0.8 nM. The IC50 (RSV A2 [6]; [15]) was 70 nM, the IC90 (RSV A2 [6]; [15]) was 630 nM and the IC50 (RSV A2 [6]; [16]) was 100 nM. For the same molecule, the IC90 (RSV A2 [6]; [16]) was 2700 nM, the IC50 (RSV A2 [6]; [17]) was 800 nM and the IC90 (RSV A2 [6]; [17]) was 7200 nM. The IC50 (RSV A2 [6]; [18]) was 400 nM, the IC90 (RSV A2 [6]; [18]) was 3600 nM and the IC50 (RSV A2 [6]; [19]) was 1200 nM. It also gave an IC90 (RSV A2 [6]; [19]) of 10800 nM, an IC50 (RSV A2 [6]; [20]) of 300 nM and an IC90 (RSV A2 [6]; [20]) of 2700 nM. For the same molecule, the “virus replication compared to control (DMSO only)” value (RSV A2 [6]; prophylaxis 24 h before RSV A2 infection, FIG. 1) was “significantly (**** p<0.0001) inhibited the virus replication”, the “virus replication compared to control (DMSO only)” value (RSV A2 [6]; treated 24 h after RSV A2 infection, FIG. 2) was “significantly (**** p<0.0001) inhibited the virus replication” and the IC50 (A/WSN/33 (H1N1) [7]) was 0.000143 µg/mL (≈ 0.000501 µM). The “inhibition of virus replication” value (Dengue Type 1 virus) was “picomolar levels of probenecid were effective at inhibiting virus replication”, the patient symptoms (SARS-CoV-2 [8]) was “patient symptoms showed improvement” and the effect on infection [9] was “did not statistically significantly reduce infection”. For the same molecule, the “OAT3 Raw Ct Value” [10] was “undetectable levels of OAT3 transcripts; also recorded: No Ct”, the “lung virus titers compared to control (PBS)” value (RSV A2 [11]; female BALB/c mice) was “significantly (p<0.0001) reduced lung virus titer; also recorded: significant (**** p<0.0001) reduction in lung viral titers” and the “lung virus titers compared to control (PBS)” value (RSV A2 [11]; male BALB/c mice) was “significantly (p<0.0001) reduced lung virus titer; also recorded: significant (**** p<0.0001) reduction in lung viral titers”. For the same molecule, the IC50 [12] was 1 nM, the absorption ([13]; po) was “completely absorbed after oral administration” and the “time to peak plasma concentration” value ([13]; po) was 2 to 4 h. For the same molecule, the half life [13] was 6 to 12 h, the half-life in plasma [13] was “less than 5 hr to more than 8 hr” and the IC50 (Memphis-37; [15]) was 30 nM. The IC90 (Memphis-37; [15]) was 270 nM, the IC50 (Memphis-37; [16]) was 400 nM and the IC90 (Memphis-37; [16]) was 3600 nM. It also gave an IC50 (Memphis-37; [17]) of 40 nM, an IC90 (Memphis-37; [17]) of 360 nM and an IC50 (Memphis-37; [18]) of 160 nM. It also gave an IC90 (Memphis-37; [18]) of 1440 nM, an IC50 (Memphis-37; [19]) of 500 nM and an IC90 (Memphis-37; [19]) of 4500 nM. The IC50 (Memphis-37; [20]) was 200 nM, the IC90 (Memphis-37; [20]) was 1800 nM and the “virus replication compared to control (DMSO only)” value (Memphis-37; prophylaxis 24 h before Memphis-37 infection, FIG. 5) was “significantly (**** p<0.0001) inhibited the virus replication”. For the same molecule, the “virus replication compared to control (DMSO only)” value (Memphis-37; treated 24 h after Memphis-37 infection, FIG. 6) was “significantly (**** p<0.0001) inhibited the virus replication”, the IC90 (SARS-CoV-2 [14]) was 2.08 µg/mL (≈ 7.29 µM) and the IC50 for flu (influenza virus) was “in the picomolar range”. For the same molecule, the “effect on hMPV infection (lung plaque assay)” value (hMPV CAN83 (A2 strain)) was “Prophylactically and Therapeutically Reduces Human Metapneumovirus (HMPV) Infection”, the IC50 (RSV B1; [15]) was 850 nM and the IC90 (RSV B1; [15]) was greater than 100000 nM. The IC50 (RSV B1; [16]) was 2000 nM, the IC90 (RSV B1; [16]) was greater than 100000 nM and the IC50 (RSV B1; [17]) was 800 nM. For the same molecule, the IC90 (RSV B1; [17]) was greater than 100000 nM, the IC50 (RSV B1; [18]) was 800 nM and the IC90 (RSV B1; [18]) was greater than 100000 nM. It also gave an IC50 (RSV B1; [19]) of 900 nM, an IC90 (RSV B1; [19]) greater than 100000 nM and an IC50 (RSV B1; [20]) of 1200 nM. The IC90 (RSV B1; [20]) was greater than 100000 nM, the “virus replication compared to control (DMSO only)” value (RSV B1; prophylaxis 24 h before RSV B1 infection, FIG. 3) was “significantly (**** p<0.0001) inhibited the virus replication” and the “virus replication compared to control (DMSO only)” value (RSV B1; treated 24 h after RSV B1 infection, FIG. 4) was “significantly (**** p<0.0001) inhibited the virus replication”.
In the case of NC(=O)c1ncn([C@@H]2O[C@H](CO)[C@@H](O)[C@H]2O)n1 [Ribavirin], the therapeutic results (RSV; inhaled) is given as “mixed-to-poor results”.
In the case of “palivizumab: a humanized monoclonal antibody targeting the F protein”, the reduction of hospitalizations (RSV; treated high-risk infants, monthly administration) is given as “approximately 50%”.
